Results: ChEMBL document CHEMBL1128089, “A carbene-generating biotinylated lactosylceramide analog as novel photoreactive substrate for GM3 synthase” (Bioorg Med Chem Lett, 1995)
Where “and” joins values, the source holds several entries; their conditions need not be identical. Equal entries are not always repeated.

Tests used:
[1] = organism: Rattus norvegicus; experiment: Evaluation of competition between CDH and compound using [3H]NANA as ligand in sialyltransferase assay at a concentration of 0.90 mM
[2] = organism: Rattus norvegicus; experiment: Evaluation of competition between CDH and compound using [3H]NANA as ligand in sialyltransferase assay at a concentration of 0.18 mM
[3] = Km from Lineweaver-Burke plot; type: ADME
[4] = organism: Rattus norvegicus; experiment: Evaluation of inhibition of CDH sialylation by the compound at a concentration of 0 mM; type: functional
[5] = organism: Rattus norvegicus; experiment: Evaluation of inhibition of CDH sialylation by the compound at a concentration of 0.9 mM; type: functional

Binding [1]: 8610 dpm | Binding [2]: 3850 dpm and 9480 dpm | Km [3]: 180 µM
SMILES: O=C(CCCC[C@@H]1SC[C@@H]2NC(=O)N[C@@H]21)NCCCC[C@H](NC(=O)c1ccc(C2(C(F)(F)F)N=N2)cc1)C(=O)NCCO[C@@H]1O[C@@H](CO)[C@@H](O[C@@H]2O[C@@H](CO)[C@H](O)[C@H](O)[C@@H]2O)[C@H](O)[C@@H]1O
Inhibition [4]: 0% | Inhibition [5]: 64%
